Test results from patent US20210045385A1, “PYRIDAZINONE-SUBSTITUTED KETOXIMES AS HERBICIDES” (FMC Corporation, priority 2018, published 2021).

Assays:
Type in all cases: in vivo
[1] = test system: Italian ryegrass (Lolium mutiflorum); assay: Test C preemergence, visual plant response rating
Method in brief: (§1)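 Compounds in a non-phytotoxic solvent with surfactant were applied as a directed soil spray preemergence or to 2–10 cm, one- to two-leaf plants postemergence, in loam–sand soil. After about 10 d in a greenhouse, injury was visually rated against untreated controls on a 0–100 scale (100 = complete control).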

[2] = test system: barnyardgrass (Echinochloa crus-galli); assay: Test C preemergence, visual plant response rating
Method in brief: as §1

[3] = test system: foxtail, giant (giant foxtail, Setaria faberi); assay: Test C preemergence, visual plant response rating
Method in brief: as §1

[4] = test system: kochia (Bassia scoparia); assay: Test C preemergence, visual plant response rating
Method in brief: as §1

[5] = test system: pigweed (Amaranthus retroflexus); assay: Test C preemergence, visual plant response rating
Method in brief: as §1

[6] = test system: ragweed (common ragweed, Ambrosia artemisiifolia); assay: Test C preemergence, visual plant response rating
Method in brief: as §1

[7] = test system: Italian ryegrass (Lolium mutiflorum); assay: Test C postemergence, visual plant response rating
Method in brief: as §1

[8] = test system: barnyardgrass (Echinochloa crus-galli); assay: Test C postemergence, visual plant response rating
Method in brief: as §1

[9] = test system: blackgrass (Alopecurus myosuroides); assay: Test C postemergence, visual plant response rating
Method in brief: as §1

[10] = test system: corn (Zea mays); assay: Test C postemergence, visual plant response rating
Method in brief: as §1

[11] = test system: foxtail, giant (giant foxtail, Setaria faberi); assay: Test C postemergence, visual plant response rating
Method in brief: as §1

[12] = test system: galium (catchweed bedstraw, Galium aparine); assay: Test C postemergence, visual plant response rating
Method in brief: as §1

[13] = test system: kochia (Bassia scoparia); assay: Test C postemergence, visual plant response rating
Method in brief: as §1

[14] = test system: pigweed (Amaranthus retroflexus); assay: Test C postemergence, visual plant response rating
Method in brief: as §1

[15] = test system: ragweed (common ragweed, Ambrosia artemisiifolia); assay: Test C postemergence, visual plant response rating
Method in brief: as §1

[16] = test system: wheat (Triticum aestivum); assay: Test C postemergence, visual plant response rating
Method in brief: as §1

[17] = test system: barnyardgrass (Echinochloa crus-galli); assay: Test D flooded paddy test, visual plant response rating; conditions: 250 g ai/ha, scale 0 to 100 (0 no effect, 100 complete control), 13 to 15 d
Method in brief: (§2)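 Plants were grown to the 2-leaf stage, pots flooded to 3 cm above soil, and compound applied directly into the paddy water, with the depth held throughout. After 13 to 15 d in a greenhouse, response was rated visually against untreated controls on a 0–100 scale (0 no effect, 100 complete control).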

[18] = test system: duck salad (Heteranthera limosa); assay: as above; conditions: 250 g ai/ha, scale 0 to 100 (0 no effect, 100 complete control), 13 to 15 d
Method in brief: as §2

[19] = test system: rice (Oryza sativa); assay: as above; conditions: 250 g ai/ha, scale 0 to 100 (0 no effect, 100 complete control), 13 to 15 d
Method in brief: as §2

[20] = test system: sedge umbrella (small-flower umbrella sedge, Cyperus difformis); assay: as above; conditions: 250 g ai/ha, scale 0 to 100 (0 no effect, 100 complete control), 13 to 15 d
Method in brief: as §2

[21] = Test C, postemergence, 1000 g ai/ha
[22] = Test C, 31 g ai/ha, 0 is no effect, 100 is complete control
[23] = Test C, 125 g ai/ha, 0 is no effect, 100 is complete control
[24] = Test C, postemergence, 125 g ai/ha

## CC(C)O/N=C(\c1c(O)cnn(C)c1=O)c1cccc2ccccc12 [Compound 222]
[1]; 1000 g ai/ha
  Ryegrass, Italian plant response rating (0 to 100 scale): 0
[2]; 1000 g ai/ha
  Barnyardgrass plant response rating (0 to 100 scale): 0
[3]; 1000 g ai/ha
  Foxtail, Giant plant response rating (0 to 100 scale): 50
[4]; 1000 g ai/ha
  Kochia plant response rating (0 to 100 scale): 0
[5]; 1000 g ai/ha
  Pigweed plant response rating (0 to 100 scale): 100
[6]; 1000 g ai/ha
  Ragweed plant response rating (0 to 100 scale): 50
[7]; [21]
  Ryegrass, Italian plant response rating (0 to 100 scale): 0
[8]; [21]
  Barnyardgrass plant response rating (0 to 100 scale): 10
[9]; [21]
  Blackgrass plant response rating (0 to 100 scale): 0
[10]; [21]
  Corn plant response rating (0 to 100 scale): 0
[11]; [21]
  Foxtail, Giant plant response rating (0 to 100 scale): 20
[12]; [21]
  Galium plant response rating (0 to 100 scale): 90
[13]; [21]
  Kochia plant response rating (0 to 100 scale): 0
[14]; [21]
  Pigweed plant response rating (0 to 100 scale): 90
[15]; [21]
  Ragweed plant response rating (0 to 100 scale): 50
[16]; [21]
  Wheat plant response rating (0 to 100 scale): 0
[17]
  Plant response rating, Barnyardgrass (Flood): 0
[18]
  Plant response rating, Ducksalad (Flood): 0
[19]
  Plant response rating, Rice (Flood): 0
[20]
  Plant response rating, Sedge, Umbrella (Flood): 0

## CON=C(c1cc(F)cc(F)c1F)c1c(O)c(C)nn(C)c1=O [Compound 226]
[1]; [22]
  Ryegrass, Italian plant response rating (0 to 100 scale): 30
[1]; [23]
  Ryegrass, Italian plant response rating (0 to 100 scale): 70
[2]; [22]
  Barnyardgrass plant response rating (0 to 100 scale): 0
[2]; [23]
  Barnyardgrass plant response rating (0 to 100 scale): 0
[3]; [22]
  Foxtail, Giant plant response rating (0 to 100 scale): 10
[3]; [23]
  Foxtail, Giant plant response rating (0 to 100 scale): 10
[4]; [22]
  Kochia plant response rating (0 to 100 scale): 0
[4]; [23]
  Kochia plant response rating (0 to 100 scale): 40
[5]; [22]
  Pigweed plant response rating (0 to 100 scale): 30
[5]; [23]
  Pigweed plant response rating (0 to 100 scale): 70
[6]; [22]
  Ragweed plant response rating (0 to 100 scale): 30
[6]; [23]
  Ragweed plant response rating (0 to 100 scale): 70
[7]; Postemergence, 31 g ai/ha
  Ryegrass, Italian plant response rating (0 to 100 scale): 20
[7]; [24]
  Ryegrass, Italian plant response rating (0 to 100 scale): 50
[8]; Postemergence, 31 g ai/ha
  Barnyardgrass plant response rating (0 to 100 scale): 10
[8]; [24]
  Barnyardgrass plant response rating (0 to 100 scale): 20
[9]; Postemergence, 31 g ai/ha
  Blackgrass plant response rating (0 to 100 scale): 0
[9]; [24]
  Blackgrass plant response rating (0 to 100 scale): 0
[10]; Postemergence, 31 g ai/ha
  Corn plant response rating (0 to 100 scale): 0
[10]; [24]
  Corn plant response rating (0 to 100 scale): 0
[11]; Postemergence, 31 g ai/ha
  Foxtail, Giant plant response rating (0 to 100 scale): 30
[11]; [24]
  Foxtail, Giant plant response rating (0 to 100 scale): 40
[12]; Postemergence, 31 g ai/ha
  Galium plant response rating (0 to 100 scale): 50
[12]; [24]
  Galium plant response rating (0 to 100 scale): 90
[13]; Postemergence, 31 g ai/ha
  Kochia plant response rating (0 to 100 scale): 20
[13]; [24]
  Kochia plant response rating (0 to 100 scale): 60
[14]; Postemergence, 31 g ai/ha
  Pigweed plant response rating (0 to 100 scale): 30
[14]; [24]
  Pigweed plant response rating (0 to 100 scale): 50
[15]; Postemergence, 31 g ai/ha
  Ragweed plant response rating (0 to 100 scale): 30
[15]; [24]
  Ragweed plant response rating (0 to 100 scale): 70
[16]; Postemergence, 31 g ai/ha
  Wheat plant response rating (0 to 100 scale): 0
[16]; [24]
  Wheat plant response rating (0 to 100 scale): 0
[17]
  Plant response rating, Barnyardgrass (Flood): 0
[18]
  Plant response rating, Ducksalad (Flood): 0
[19]
  Plant response rating, Rice (Flood): 0
[20]
  Plant response rating, Sedge, Umbrella (Flood): 0

## CON=C(c1cc(F)cc(F)c1F)c1c(O)c(C)nn(C)c1=O [Compound 227]
[1]; [22]
  Ryegrass, Italian plant response rating (0 to 100 scale): 30
[1]; [23]
  Ryegrass, Italian plant response rating (0 to 100 scale): 60
[2]; [22]
  Barnyardgrass plant response rating (0 to 100 scale): 0
[2]; [23]
  Barnyardgrass plant response rating (0 to 100 scale): 20
[3]; [22]
  Foxtail, Giant plant response rating (0 to 100 scale): 0
[3]; [23]
  Foxtail, Giant plant response rating (0 to 100 scale): 30
[4]; [22]
  Kochia plant response rating (0 to 100 scale): 0
[4]; [23]
  Kochia plant response rating (0 to 100 scale): 10
[5]; [22]
  Pigweed plant response rating (0 to 100 scale): 0
[5]; [23]
  Pigweed plant response rating (0 to 100 scale): 10
[6]; [22]
  Ragweed plant response rating (0 to 100 scale): 20
[6]; [23]
  Ragweed plant response rating (0 to 100 scale): 80
[7]; Postemergence, 31 g ai/ha
  Ryegrass, Italian plant response rating (0 to 100 scale): 20
[7]; [24]
  Ryegrass, Italian plant response rating (0 to 100 scale): 40
[8]; Postemergence, 31 g ai/ha
  Barnyardgrass plant response rating (0 to 100 scale): 0
[8]; [24]
  Barnyardgrass plant response rating (0 to 100 scale): 20
[9]; Postemergence, 31 g ai/ha
  Blackgrass plant response rating (0 to 100 scale): 0
[9]; [24]
  Blackgrass plant response rating (0 to 100 scale): 0
[10]; Postemergence, 31 g ai/ha
  Corn plant response rating (0 to 100 scale): 0
[10]; [24]
  Corn plant response rating (0 to 100 scale): 0
[11]; Postemergence, 31 g ai/ha
  Foxtail, Giant plant response rating (0 to 100 scale): 0
[11]; [24]
  Foxtail, Giant plant response rating (0 to 100 scale): 0
[12]; Postemergence, 31 g ai/ha
  Galium plant response rating (0 to 100 scale): 60
[12]; [24]
  Galium plant response rating (0 to 100 scale): 80
[13]; Postemergence, 31 g ai/ha
  Kochia plant response rating (0 to 100 scale): 30
[13]; [24]
  Kochia plant response rating (0 to 100 scale): 70
[14]; Postemergence, 31 g ai/ha
  Pigweed plant response rating (0 to 100 scale): 30
[14]; [24]
  Pigweed plant response rating (0 to 100 scale): 50
[15]; Postemergence, 31 g ai/ha
  Ragweed plant response rating (0 to 100 scale): 20
[15]; [24]
  Ragweed plant response rating (0 to 100 scale): 50
[16]; Postemergence, 31 g ai/ha
  Wheat plant response rating (0 to 100 scale): 0
[16]; [24]
  Wheat plant response rating (0 to 100 scale): 0
[17]
  Plant response rating, Barnyardgrass (Flood): 0
[18]
  Plant response rating, Ducksalad (Flood): 0
[19]
  Plant response rating, Rice (Flood): 0
[20]
  Plant response rating, Sedge, Umbrella (Flood): 0
